Data reported in PubChem BioAssay AID248 (DTP/NCI, 2004).
Inconclusive results and toxic doses are left out.

System: L1210 leukemia ip in BDF1 mice, survival T/C
Test: NCI In Vivo Anticancer Drug Screen. Data for tumor model L1210 Leukemia (intraperitoneal) in B6D2F1 (BDF1) mice
Conditions: endpoint: mean survival time, higher = longer survival
How it was run: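 Transplantable tumor model; survival measured in treated vs vehicle control mice. Value = treated/control.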

[1] = dose: 75.0 mg/kg/injection, schedule: Q01DX001 (ip), vehicle: saline
[2] = dose: 150.0 mg/kg/injection, schedule: Q01DX001 (ip), vehicle: saline
[3] = dose: 100.0 mg/kg/injection, schedule: Q04DX002 (ip), vehicle: Klucel (hydroxypropylcellulose) (HPC)
[4] = dose: 200.0 mg/kg/injection, schedule: Q04DX002 (ip), vehicle: Klucel (hydroxypropylcellulose) (HPC)
[5] = dose: 25.0 mg/kg/injection, schedule: Q04DX003 (ip), vehicle: Klucel (hydroxypropylcellulose) (HPC)
[6] = dose: 100.0 mg/kg/injection, schedule: Q04DX003 (ip), vehicle: saline with Tween-80
[7] = dose: 200.0 mg/kg/injection, schedule: Q04DX003 (ip), vehicle: saline with Tween-80
[8] = dose: 400.0 mg/kg/injection, schedule: Q04DX003 (ip), vehicle: saline with Tween-80

Compound: COC(=O)C1CC(O)CC(C(=O)OC)O1 (centres undefined)
- T/C [1]: 109 % of control
- T/C [2]: 93 % of control

Compound: Fc1ccc(Cc2nnc(Cc3ccc(F)cc3)nn2)cc1
- T/C [3]: 105 % of control
- T/C [4]: 102 % of control

Compound: NC(N)=NC(=O)COc1ccc(Cl)cc1Cl
- T/C (dose: 100.0 mg/kg/injection, schedule: Q04DX002 (ip), vehicle: saline + alcohol): 100 % of control
- T/C (dose: 200.0 mg/kg/injection, schedule: Q04DX002 (ip), vehicle: saline + alcohol): 107 % of control

Compound: CC(C)(C)c1cc(CN2CCCCC2)cc(C(C)(C)C)c1O
- T/C (dose: 12.5 mg/kg/injection, schedule: Q04DX003 (ip), vehicle: Klucel (hydroxypropylcellulose) (HPC)): 101 % of control
- T/C [5]: 114 % of control
- T/C (dose: 50.0 mg/kg/injection, schedule: Q04DX003 (ip), vehicle: Klucel (hydroxypropylcellulose) (HPC)): 97 % of control

Compound: C=CS(=O)Cc1ccccc1 (centres undefined)
- T/C (dose: 12.5 mg/kg/injection, schedule: Q04DX002 (ip), vehicle: saline): 112 % of control
- T/C (dose: 25.0 mg/kg/injection, schedule: Q04DX002 (ip), vehicle: saline): 94 % of control
- T/C (dose: 50.0 mg/kg/injection, schedule: Q04DX002 (ip), vehicle: saline): 98 % of control

Compound: CCCCNC(=NC)c1ccc(NC(=O)c2ccc(C(=O)Nc3ccc(C(=NC)NCCCC)cc3)cc2)cc1
- T/C (dose: 4.4 mg/kg/injection, schedule: Q01DX Z (ip), vehicle: saline): 112 % of control
- T/C (dose: 6.6 mg/kg/injection, schedule: Q01DX Z (ip), vehicle: saline): 120 % of control

Compound: Cc1[nH]nc2c(=O)[nH]c(=O)[nH]c12
- T/C [1]: 100 % of control
- T/C [2]: 103 % of control
- T/C (dose: 300.0 mg/kg/injection, schedule: Q01DX001 (ip), vehicle: saline): 107 % of control

Compound: O=C(Cc1ccc(CC(=O)NO)cc1)NO
- T/C [1]: 100 % of control
- T/C [2]: 96 % of control

Compound: O=C(/C=C/c1ccco1)c1ccc(O)cc1
- T/C [3]: 101 % of control
- T/C [4]: 90 % of control
- T/C (dose: 400.0 mg/kg/injection, schedule: Q04DX002 (ip), vehicle: Klucel (hydroxypropylcellulose) (HPC)): 93 % of control

Compound: CCOC(=O)C1(C#N)C(=O)CSC1=Nc1ccccc1Cl (centres undefined)
- T/C (dose: 100.0 mg/kg/injection, schedule: Q04DX002 (ip), vehicle: saline with Tween-80): 95 % of control
- T/C (dose: 200.0 mg/kg/injection, schedule: Q04DX002 (ip), vehicle: saline with Tween-80): 102 % of control
- T/C (dose: 400.0 mg/kg/injection, schedule: Q04DX002 (ip), vehicle: saline with Tween-80): 95 % of control

Compound: CC(=O)Oc1c2ccccc2c(OC(C)=O)c2cc(/C=C/C(=O)O)ccc12
- T/C [6]: 95 % of control
- T/C [7]: 90 % of control
- T/C [8]: 88 % of control

Compound: CN(C)CC(OCCCc1ccccc1)C(Cl)(Cl)Cl (centres undefined)
- T/C [6]: 109 % of control
- T/C [7]: 101 % of control

Compound: O=C(Nc1ccc([N+](=O)[O-])cc1)c1cc(N2CCCC2)ccn1
- T/C (dose: 100.0 mg/kg/injection, schedule: Q01DX001 (ip), vehicle: saline): 100 % of control
- T/C (dose: 200.0 mg/kg/injection, schedule: Q01DX001 (ip), vehicle: saline): 96 % of control
- T/C (dose: 400.0 mg/kg/injection, schedule: Q01DX001 (ip), vehicle: saline): 100 % of control

Compound: CCCCNC(=O)C1CC2c3cc(Br)cc4[nH]c(Br)c(c34)CC2N(C)C1 (centres undefined)
- T/C [5]: 96 % of control
- T/C (dose: 100.0 mg/kg/injection, schedule: Q04DX003 (ip), vehicle: Klucel (hydroxypropylcellulose) (HPC)): 91 % of control
- T/C (dose: 400.0 mg/kg/injection, schedule: Q04DX003 (ip), vehicle: Klucel (hydroxypropylcellulose) (HPC)): 89 % of control

Compound: COc1ccccc1NC(=O)N(O)C1(C#N)CCCCC1
- T/C (dose: 100.0 mg/kg/injection, schedule: Q01DX001 (ip), vehicle: carboxymethylcellulose (CMC)): 94 % of control
- T/C (dose: 200.0 mg/kg/injection, schedule: Q01DX001 (ip), vehicle: carboxymethylcellulose (CMC)): 93 % of control
- T/C (dose: 400.0 mg/kg/injection, schedule: Q01DX001 (ip), vehicle: carboxymethylcellulose (CMC)): 96 % of control

Compound: CC1(C)CC(C(N)=O)C(=O)O1 (centres undefined)
- T/C [6]: 101 % of control
- T/C [7]: 103 % of control
- T/C [8]: 101 % of control

Compound: C[N+](C)(C)CC#N
- T/C (dose: 100.0 mg/kg/injection, schedule: Q04DX003 (ip), vehicle: saline): 95 % of control
- T/C (dose: 200.0 mg/kg/injection, schedule: Q04DX003 (ip), vehicle: saline): 95 % of control
